# Experimental data published in patent US20260167677A1, “ANTI-ADAM10 ANTIBODIES AND USES IN TREATMENT OF CANCER” (Memorial Sloan Kettering Cancer Center, priority 2022, published 2026).
# What was measured:
# [1] = tested on: xenografted COLO205 cells; assay: Mouse model of CRC using xenografted COLO205 cells; format: in vivo; settings: first study; 1H5 30 mg/kg i.p. biweekly, irinotecan 20 mg/kg i.p. once a week
# Procedure: For the mouse model, COLO205 cells were grown in monolayer culture, harvested by trypsinization, and implanted subcutaneously into the right flank of 6- to 8-week-old female athymic nude mice. Approximately 10 million cells were injected per mouse. Mice were randomized into 4 groups (each n=4).
# Tumor volume was determined by external caliper and calculated by the modified ellipsoidal formula: V=½(Length×Width^2). Antitumor efficacy was calculated as (1-dT/dC)[…], where dT is the final tumor volume minus the starting tumor volume from the treatment group, and dC is the final tumor volume minus the starting tumor volume of the control group (Rios-Doria et al., 2015). Error bars were calculated as SEM. The mouse body weight and general health were monitored daily.
# In a second study, 1H5 at two different doses was used in the mouse model. For the mouse model, approximately five million cells were implanted (subcutaneous with Matrigel) into 6- to 8-week-old female athymic nude mice. Mice were randomized into 3 groups (each n=5).
# human ADAM10 ECD = molecular target: T1, human ADAM10 ECD (Homo sapiens, UniProt O14672); assay: Fluorogenic peptide cleavage assay, human ADAM10 ECD; format: biochemical; settings: 1:1 molar ratio; human or bovine ADAM10 ECD not told apart
# T1 construct: Human ADAM10 ECD (20-650); Fc-tag (human); made in house; host or cells: baculovirus-infected Hi5 insect cells
# T1 sequence (O14672 20-650): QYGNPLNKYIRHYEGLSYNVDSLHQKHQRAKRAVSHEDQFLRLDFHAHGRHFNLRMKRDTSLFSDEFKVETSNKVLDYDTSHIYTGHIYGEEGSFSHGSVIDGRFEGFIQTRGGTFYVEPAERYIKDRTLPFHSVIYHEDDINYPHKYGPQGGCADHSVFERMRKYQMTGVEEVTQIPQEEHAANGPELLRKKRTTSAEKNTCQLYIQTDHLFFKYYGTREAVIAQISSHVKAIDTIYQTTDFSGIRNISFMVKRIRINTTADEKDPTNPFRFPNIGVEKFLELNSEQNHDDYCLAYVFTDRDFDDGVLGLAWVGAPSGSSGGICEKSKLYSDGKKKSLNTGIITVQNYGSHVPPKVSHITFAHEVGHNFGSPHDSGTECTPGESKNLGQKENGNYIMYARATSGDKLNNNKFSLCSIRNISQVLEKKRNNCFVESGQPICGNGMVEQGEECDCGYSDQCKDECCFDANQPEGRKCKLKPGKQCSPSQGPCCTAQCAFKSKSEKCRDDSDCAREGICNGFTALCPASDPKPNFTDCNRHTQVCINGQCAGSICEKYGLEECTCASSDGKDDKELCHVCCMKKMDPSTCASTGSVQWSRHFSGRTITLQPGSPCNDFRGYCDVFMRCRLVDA
# Procedure: ADAM10 ECD-antibody or ADAM10 ECD-inhibitor (broad spectrum metalloprotease inhibitor GM6001) complexes were formed at a 1:1 molar ratio prior to the assay. The assay was carried out by mixing 50 μM of a fluorogenic peptide substrate Mca-PLAQAV-Dpa with ADAM10-antibody/inhibitor complexes at 37° C., and monitoring the progress of the enzymatic reaction by fluorescence emission (excitation 320 nm and emission 405 nm) over a time course of 1 hour using a SpectraMax M5. ADAM10 ECD (bovine or human) alone was used as positive control. The substrate peptide was derived from TNFalpha and contains a highly fluorescent 7-methoxycoumarin group and a quencher group, 2,4-dinitrophenyl. ADAM10 cleaves the amide bond between the fluorescent and the quencher group causing an increase in fluorescence (Seegar et al., 2017; Black & Becherer, 1998).
effect on substrate cleavage (human ADAM10 ECD),Compound,tumor growth inhibition [1] [%]
,"CCc1c2c(nc3ccc(OC(=O)N4CCC(N5CCCCC5)CC4)cc13)-c1cc3c(c(=O)n1C2)COC(=O)[C@]3(O)CC [Irinotecan, irinotecan, reference compound]",48
marginal inhibition,"CNC(=O)[C@H](Cc1c[nH]c2ccccc12)NC(=O)[C@@H](CC(=O)NO)CC(C)C [broad-spectrum inhibitor, GM6001, reference compound]",
